Test results published in patent publication US20260042731A1, “(2,4-DICHLOROPHENOXY)ACETIC ACID ANALOGS” (CORTEVA AGRISCIENCE LLC, priority 2022, published 2026).
Read-outs that look alike come from different tables or passages of the source.

Experiments:
[1] = Volatility of compounds measured by thermogravimetric analysis (TGA); type: physicochemical
[2] = test system: ABUTH, AMATA, AMBEL, CHEAL, ERICA weeds; test: Postemergence herbicide evaluation, overall average % weed control across ABUTH, AMATA, AMBEL, CHEAL, ERICA; type: in vivo
Excerpt: For example, the pesticidal activity may include herbicidal activity.

[3] = test system: Ambrosia artemisiifolia (AMBEL), common ragweed; test: Postemergence herbicide evaluation, growth of Ambrosia artemisiifolia (AMBEL); type: in vivo; details: Ambrosia artemisiifolia, post-emergence, read-out: AVE. AMBEL, percent reduction in plant size relative to the untreated control; for pest or weed control at 280 g/ha: 280 g ae/ha; for pest or weed control at 560 g/ha: 560 g ae/ha
[4] = test system: weeds ABUTH, AMATA, AMBEL, CHEAL, ERICA; test: Postemergence herbicide evaluation, overall average % weed control (ABUTH, AMATA, AMBEL, CHEAL, ERICA); type: in vivo; details: post-emergence, read-out: Overall Ave % Weed Control; for pest or weed control at 280 g/ha: 280 g ae/ha; for pest or weed control at 560 g/ha: 560 g ae/ha
[5] = test system: glyphosate resistant Conyza canadensis (L.) (ERICA), horseweed; test: Postemergence herbicide evaluation, growth of Conyza canadensis (ERICA); type: in vivo; details: Erigeron canadensis, post-emergence, read-out: Ave. ERICA, percent reduction in plant size relative to the untreated control; for pest or weed control at 280 g/ha: 280 g ae/ha; for pest or weed control at 560 g/ha: 560 g ae/ha
[6] = test system: Abutilon theophrasti (ABUTH), velvetleaf; test: Postemergence herbicide evaluation, growth of Abutilon theophrasti (ABUTH); type: in vivo; details: Abutilon theophrasti, post-emergence, read-out: AVE. ABUTH, percent reduction in plant size relative to the untreated control; for pest or weed control at 280 g/ha: 280 g ae/ha; for pest or weed control at 560 g/ha: 560 g ae/ha
[7] = test system: Amaranthus rudis (AMATA), tall water hemp; test: Postemergence herbicide evaluation, growth of Amaranthus rudis (AMATA); type: in vivo; details: Amaranthus tuberculatus, post-emergence, read-out: Ave. AMATA, percent reduction in plant size relative to the untreated control; for pest or weed control at 280 g/ha: 280 g ae/ha; for pest or weed control at 560 g/ha: 560 g ae/ha
[8] = test system: Glycine max (Enlist E3 traited soybeans, GLXMA); details: Enlist E3 soybeans
[9] = test system: Chenopodium album (CHEAL), common lambsquarters; test: Postemergence herbicide evaluation, growth of Chenopodium album (CHEAL); type: in vivo; details: Chenopodium album, post-emergence, read-out: Ave. CHEAL, percent reduction in plant size relative to the untreated control; for pest or weed control at 280 g/ha: 280 g ae/ha; for pest or weed control at 560 g/ha: 560 g ae/ha

With CN(NC(=O)COc1ccc(Cl)cc1Cl)c1ccccc1 [Compound D11, 2-(2,4-Dichlorophenoxy)-N′-methyl-N′-phenylacetohydrazide] the “TGA Data (rate of weight loss, volatility)” value [1] was 0.06 µg/min, the “Overall Ave % Weed Control” value ([2]; 280 g ae/ha, 7 DAA) was 63% and the “Overall Ave % Weed Control” value ([2]; 280 g ae/ha, 14 DAA) was 76%. For the same compound, the “Overall Ave % Weed Control” value ([2]; 280 g ae/ha, 21 DAA) was 80%, the “Overall Ave % Weed Control” value ([2]; 560 g ae/ha, 7 DAA) was 69% and the “Overall Ave % Weed Control” value ([2]; 560 g ae/ha, 14 DAA) was 82%. For the same compound, the “Overall Ave % Weed Control” value ([2]; 560 g ae/ha, 21 DAA) was 89%.
Work on C[N+](C)(C)CCOC(=O)COc1ccc(Cl)cc1Cl.[Cl-] [Compound E3, 2-(2-(2,4-Dichlorophenoxy)acetoxy)-N, N, N-trimethylethanaminium chloride] yielded a pest or weed control at 280 g/ha ([3]; 168 h, 7 DAA) of 63%, a pest or weed control at 560 g/ha ([3]; 168 h, 7 DAA) of 75% and a pest or weed control at 280 g/ha ([3]; 336 h, 14 DAA) of 89%. For the same compound, the pest or weed control at 560 g/ha ([3]; 336 h, 14 DAA) was 93%, the pest or weed control at 280 g/ha ([3]; 504 h, 21 DAA) was 95% and the pest or weed control at 560 g/ha ([3]; 504 h, 21 DAA) was 98%. It also gave a pest or weed control at 280 g/ha ([4]; 168 h, 7 DAA) of 71%, a pest or weed control at 560 g/ha ([4]; 168 h, 7 DAA) of 77% and a pest or weed control at 280 g/ha ([4]; 336 h, 14 DAA) of 81%. For the same compound, the pest or weed control at 560 g/ha ([4]; 336 h, 14 DAA) was 86%, the pest or weed control at 280 g/ha ([4]; 504 h, 21 DAA) was 86% and the pest or weed control at 560 g/ha ([4]; 504 h, 21 DAA) was 89%. For the same compound, the “TGA Data (rate of weight loss, volatility)” value [1] was 2.4 µg/min, the pest or weed control at 280 g/ha ([5]; 168 h, 7 DAA) was 73% and the pest or weed control at 560 g/ha ([5]; 168 h, 7 DAA) was 78%. For the same compound, the pest or weed control at 280 g/ha ([5]; 336 h, 14 DAA) was 83%, the pest or weed control at 560 g/ha ([5]; 336 h, 14 DAA) was 88% and the pest or weed control at 280 g/ha ([5]; 504 h, 21 DAA) was 95%. For the same compound, the pest or weed control at 560 g/ha ([5]; 504 h, 21 DAA) was 93%, the pest or weed control at 280 g/ha ([6]; 168 h, 7 DAA) was 75% and the pest or weed control at 560 g/ha ([6]; 168 h, 7 DAA) was 83%. The pest or weed control at 280 g/ha ([6]; 336 h, 14 DAA) was 78%, the pest or weed control at 560 g/ha ([6]; 336 h, 14 DAA) was 93% and the pest or weed control at 280 g/ha ([6]; 504 h, 21 DAA) was 86%. The pest or weed control at 560 g/ha ([6]; 504 h, 21 DAA) was 97%, the pest or weed control at 280 g/ha ([7]; 168 h, 7 DAA) was 78% and the pest or weed control at 560 g/ha ([7]; 168 h, 7 DAA) was 78%. For the same compound, the pest or weed control at 280 g/ha ([7]; 336 h, 14 DAA) was 78%, the pest or weed control at 560 g/ha ([7]; 336 h, 14 DAA) was 85% and the pest or weed control at 280 g/ha ([7]; 504 h, 21 DAA) was 75%. The pest or weed control at 560 g/ha ([7]; 504 h, 21 DAA) was 83%, the “AVE. GLXMA, percent reduction in plant size relative to the untreated control” value ([8]; 280 g ae/ha, 7 DAA) was 0% and the “AVE. GLXMA, percent reduction in plant size relative to the untreated control” value ([8]; 280 g ae/ha, 14 DAA) was 0%. For the same compound, the “AVE. GLXMA, percent reduction in plant size relative to the untreated control” value ([8]; 280 g ae/ha, 21 DAA) was 3%, the “AVE. GLXMA, percent reduction in plant size relative to the untreated control” value ([8]; 560 g ae/ha, 7 DAA) was 0% and the “AVE. GLXMA, percent reduction in plant size relative to the untreated control” value ([8]; 560 g ae/ha, 14 DAA) was 0%. The “AVE. GLXMA, percent reduction in plant size relative to the untreated control” value ([8]; 560 g ae/ha, 21 DAA) was 0%, the pest or weed control at 280 g/ha ([9]; 168 h, 7 DAA) was 68% and the pest or weed control at 560 g/ha ([9]; 168 h, 7 DAA) was 70%. For the same compound, the pest or weed control at 280 g/ha ([9]; 336 h, 14 DAA) was 78%, the pest or weed control at 560 g/ha ([9]; 336 h, 14 DAA) was 73% and the pest or weed control at 280 g/ha ([9]; 504 h, 21 DAA) was 80%. The pest or weed control at 560 g/ha ([9]; 504 h, 21 DAA) was 77%.
